According to patent US11408886B2, “Method of screening for novel therapeutic targets to develop therapeutic agents for colon cancer and prognostic biomarkers for colon cancer treatment screened using the same” (KOREA INSTITUTE OF SCIENCE AND TECHNOLOGY, priority 2018, dated 2022):

Assays:
[1] = test system: colon cancer cells; experiment: Protein expression level changes after treatment with FAK inhibitors (in-solution digestion, protein identification, expression ratios, FIG. 14); assay type: cell-based, human; parameters: dose or concentration left out as unconfirmed; details: 2 hours (FIG. 14)
Experimental: A human colon cancer cell line, HCT-116, was cultured using an RPMI-1640 medium containing 10% (v/v) heat-inactivated FBS and 1% (v/v) penicillin/streptomycin in a 60 mm plastic culture plate (Corning Life Science, Acton, Mass., USA) until its cell density reached 2×10^6 cells/cm^2. The culture was performed in a humidified incubator of 5% CO2 at 37° C. The cells were starved for 24 hours and washed with serum-free medium. FGF signaling was amplified by adding 10 ng/mL of EGF, IGF, PMA, and PDGF, followed by further incubation for 2 hours. Thereafter, the cells were harvested and collected by centrifugation at a speed of 300 g for 5 minutes. Cell membranes were disrupted using a sonicator, and centrifuged at a speed of 13,000 g for 30 minutes to collect lysed intracellular proteins. Further, to compare the amounts of expressed FAK-binding proteins by using defactinib (VS-6063) and PF-573228, which are FAK inhibitors, independently or simultaneously, normal intestinal epidermal cells and colon cancer cells were each treated with FAK inhibitors at three different final concentrations […], 1 mM, and 10 mM (2 hours), and then cells were collected and subjected to in-solution digestion to isolate and identify the proteins.

[2] = test system: colon cancer cell line HCT-116; experiment: Western blotting / immunoprecipitation of FAK and FAK-bound protein complexes after treatment with FAK signaling substances; assay type: cell-based, human; details: HCT-116, 10 ng/mL, 2 hours, compared with control group not treated with the signaling substances (FIG. 7)
Experimental: A human colon cancer cell line, HCT-116, was cultured using an RPMI-1640 medium containing 10% (v/v) heat-inactivated FBS and 1% (v/v) penicillin/streptomycin in a 60 mm plastic culture plate (Corning Life Science, Acton, Mass., USA) until its cell density reached 2×10^6 cells/cm^2. The culture was performed in a humidified incubator of 5% CO2 at 37° C. The cells were starved for 24 hours and washed with serum-free medium. FGF signaling was amplified by adding 10 ng/mL of EGF, IGF, PMA, and PDGF, followed by further incubation for 2 hours. Thereafter, the cells were harvested and collected by centrifugation at a speed of 300 g for 5 minutes. Cell membranes were disrupted using a sonicator, and centrifuged at a speed of 13,000 g for 30 minutes to collect lysed intracellular proteins. Further, to compare the amounts of expressed FAK-binding proteins by using defactinib (VS-6063) and PF-573228, which are FAK inhibitors, independently or simultaneously, normal intestinal epidermal cells and colon cancer cells were each treated with FAK inhibitors at three different final concentrations of 0.1 mM, 1 mM, and 10 mM (2 hours), and then cells were collected and subjected to in-solution digestion to isolate and identify the proteins.
The concentrations of the collected proteins were determined using a bicinchoninic acid (BCA) protein assay kit (Thermo Fisher Scientific, Waltham, Mass., USA), and the remaining samples were separated by 10% SDS-PAGE (sodium dodecyl sulfate-polyacrylamide gel electrophoresis), and transferred to a nitrocellulose membrane (Pall Corporation, Pensacola, Fla., USA) to perform Western blotting. The membrane was blocked with PBS containing 0.2% TWEEN 20 and 5% non-fat dry milk for about 2 hours, and blotting was performed using anti-phospho-FAK (1:1000) antibody and anti-β-actin (1:5000) antibody overnight. HRP-conjugated goat anti-rabbit IgG diluted 1:5000 was used as a secondary antibody, and fluorescence images were scanned using an Ez-capture MG (ATTO, NY, USA) instrument. For IP, 1.5 mg of the cell lysate was prepared and incubated overnight with 20 μL of agarose beads preblocked (at 4° C. for 2 hours) with PBS containing 1% bovine serum albumin (BSA), wherein 10 μL of FAK antibody (1:500) was immobilized to the agarose beads. To remove nonspecific binding, the beads were washed with 600 μL of PBS containing 0.1% TWEEN 20 twice, and FAK protein and proteins bound thereto were crosslinked using 2 mM of dithiobis(succinimidyl propionate) (DSP) and dithiobismaleimidoethane (DTME). The crosslinking agents were dissolved in 20 mM DMSO and diluted with PBS (pH 7.4), and then used in the reaction. Washing was performed five times using 600 μL of a 0.1% solution of PBS-Tween 20 and further performed using PBS twice. […]

## CS(=O)(=O)c1cccc(CNc2nc(Nc3ccc4c(c3)CCC(=O)N4)ncc2C(F)(F)F)c1 [PF-573228]
[1]
  ELAVL1 expression level: statistically significant reduction
  SYNE1 expression level: statistically significant reduction
  ZYX expression level: statistically significant reduction
[1]; reduction only with PF-573228
  ARFGEF expression level: significant reduction

## CCCCCCCCCCCCCC(=O)O[C@@H]1[C@@H](C)[C@@]2(O)[C@@H](C=C(CO)C[C@]3(O)C(=O)C(C)=C[C@@H]23)[C@@H]2C(C)(C)[C@]12OC(C)=O [PMA, phorbol 12-myristate 13-acetate]
[2]
  complexes of the FAK protein and the proteins specifically bound thereto: increased two-fold or more

## PDGF
[2]
  complexes of the FAK protein and the proteins specifically bound thereto: increased two-fold or more

## hEGF: human epidermal growth factor, FAK signaling substance
[2]
  complexes of the FAK protein and the proteins specifically bound thereto: increased two-fold or more

## hIGF-1: human insulin-like growth factor-1, FAK signaling substance
[2]
  complexes of the FAK protein and the proteins specifically bound thereto: increased two-fold or more
